# Laboratory results as given in patent US12616713B2, “Methods for enhancing vascular density” (priority 2016, dated 2026).
# “Also recorded” adds a separate entry of the source.
# Legend:
# HUVECs [1] = assay: Cell proliferation assay, HUVECs; format: cell-based, human; conditions: NMN 500 μM, 48 h, complete growth medium
# Procedure: ECs (0.1×10^5 cells) were seeded in a 48-well plate and incubated with PBS (vehicle) or NMN (500 μM) in complete growth medium for 48 h. At the end of the incubation time, the cells were harvested and resuspended in Opti-MEM medium. Cell number was determined using flow cytometry (FACSCanto II Analyzer, BD Biosciences, USA).
# HUVECs [2] = assay: VEGF-mediated transwell migration assay, HUVECs; format: cell-based, human; conditions: NMN 500 μM versus PBS
# [3] = tested on: aortic rings from 18-month old mice; assay: Aortic ring assay (ex vivo angiogenesis); format: cell-based, mouse; conditions: 18-month old WT mice, VEGF 30 ng/mL, NMN 0.5 mM, 7 days, versus PBS
# Procedure: Aortic ring assay was performed according to the published protocol (Baker et al., 2012, Nat Protoc 7, 89-104). Briefly, thoracic aortas from mice were excised and transferred to Opti-MEM media. All extraneous fat, tissue and branching vessels were removed with forceps and a scalpel under a dissection microscope. The aortas were cut into ˜0.5 mm wide rings and serum starved overnight by incubating in Opti-MEM at 37° C./5% CO2. Next day, each aortic ring was embedded in 50 μL collagen matrix in a 96-well plate and incubated at 37° C./5% CO2 for 1 h. After embedding, the vessel sprouting was stimulated by supplementing the rings with 150 μL of Opti-MEM culture containing FBS (2.5%), with or without VEGF (30 ng/mL), or FGF (30 ng/mL) and incubating at 37° C./5% CO2 for 7 days. NMN (500 μM) was added to the media wherever mentioned and replaced every 3 days. The resulting sprouts were stained with BS1 lectin-FITC (Sigma) and imaged using fluorescence microscope. The number and total area of sprouts originating from aortic rings were quantified by ImageJ software.
# [4] = Food and water intake, body weight and composition, motor and cardiac function of treated old mice; format: in vivo, mouse; conditions: 18-month old mice, NMN 400 mg/kg/day in drinking water, two months
# From the text: SIRT1-iKO, SIRT1-Tg and SIRT1^STOP mice were described previously (Firestein et al., 2008, PLoS One 3, e2020; Price et al., 2012, Cell Metab 15, 675-690). Tie2Cre and Sirt1^flox/flox mice were purchased from Jackson Laboratory (Bar Harbor, ME). MCK-PGC-1α and MyogCre mice were gifts from Dr. Bruce Spiegelman (Dana Farber Cancer Center, MA) and Dr. Eric N. Olson (UT Southwestern, Dallas, TX), respectively. mT-STOP^flox/flox, Gfp mouse was generated in house by E.O.W., which consists of an allele driven by ubiquitous actin B promoter, which has loxP sites flanking membrane-targeted tandem dimer Tomato (mT) and transcriptional STOP cassette, followed by a GFP coding sequence. […] Mice were fasted for 6 h and blood glucose levels were measured by tail bleed (Accu Check Performa, Roche). Blood lactate was measured before and immediately after treadmill exercise training for 20 minutes at 15 meters/minute by tail bleed (Accutrend Plus, Roche). […] Urine was collected after a 2 h fast and analyzed for creatinine levels using a colorimetric assay kit (Cayman chemical, US) as per manufacturer's protocol. Motor coordination was assessed using the rotarod test as previously described ([…] et al., 2011, Plos One 6, e20336). […] On the 4th day, the animals were subjected to three trials on the accelerating roller (4-40 rpm in 4 min) and the time that the mice remained was recorded. […]
# C57BL/6J mice [5] = assay: Optoacoustic imaging of hindlimb soluble oxygen (sO2); format: in vivo, mouse; conditions: 20-month old mice, photoacoustic tomography
# Procedure: Optoacoustic imaging. An MSOT inVision 256-TF small animal imaging system (iThera Medical GmbH, Munich, Germany) was used (Morscher et al., 2014, Photoacoustics 2, 103-110). Mice were anesthetized with isoflurane (1.5-2%, 500 ml O2/min), and body portion below chest area was shaved using depilatory cream. The animals were then placed horizontally in the imaging chamber and three-dimensional scanning of the lower portion was performed as per manufacture's protocol. Briefly, a tunable optical parametric oscillator (OPO) pumped by an Nd:YAG laser provided excitation pulses with a duration of 9 ns at wavelengths from 680 nm to 980 nm at a repetition rate of 10 Hz with a wavelength tuning speed of 10 ms and a peak pulse energy of 100 mJ at 730 nm. Ten arms of a fiber bundle provided even illumination of a ring-shaped light strip of approx. 8 mm width. For ultrasound detection, 256 toroidally focused ultrasound transducers with a center frequency of 5 MHz (60% bandwidth), organized in a concave array of 270° angular coverage and a radius of curvature of 4 cm, were used.
# C57BL/6J mice [6] = assay: Post-exercise blood lactate; format: in vivo, mouse; conditions: 20-month old mice
# Procedure: Mice were fasted for 6 h and blood glucose levels were measured by tail bleed (Accu Check Performa, Roche). Blood lactate was measured before and immediately after treadmill exercise training for 20 minutes at 15 meters/minute by tail bleed (Accutrend Plus, Roche). For VEGF analysis, whole blood was drawn from the retroorbital sinus under brief isoflurane anesthesia. The serum was collected and assayed for VEGF expression by ELISA (Eve Technologies, Canada). Urine was collected after a 2 h fast and analyzed for creatinine levels using a colorimetric assay kit (Cayman chemical, US) as per manufacturer's protocol.
smiles,measurement,setting,value
"NC(=O)c1ccc[n+]([C@@H]2O[C@H](COP(=O)([O-])O)[C@@H](O)[C@H]2O)c1 [NMN, nicotinamide mononucleotide]",cell growth (relative cell number),HUVECs [1],promoted cell growth; also recorded: induced proliferation
same,motility in response to VEGF (migrated cells),HUVECs [2],promoted
same,number of VEGF-mediated outgrowths or sprouts per aortic ring,[3],doubled
same,"food intake, water consumption, body weights, body composition, motor learning skills and cardiac function",[4],had no effect
same,"soluble oxygen (sO2) levels in resting muscle, greater than vehicle-treated controls",C57BL/6J mice [5],15%
same,post-exercise blood lactate,C57BL/6J mice [6],3.9 mmol/L
